# In patent publication US20230295162A1 (EÖTVÖS LORÁND TUDOMÁNYEGYETEM, priority 2020, published 2023):
# Where two headings read alike, the source gives them in different places.
# Assays:
# [1] = test system: SCC-25 (tongue, squamous cell carcinoma) cells; assay: Cell viability assay, CellTiter-Glo (Example 21); type: cell-based, human; conditions: 72 h treatment
# Protocol: (§1) Effect of the selected compounds on cancer cell viability was measured via CellTiter-Glo® luminescent cell viability assay (Promega, Madison, WI, USA) according to the manufacturer's instructions. Cells were plated onto a flat-bottomed, white 96 well plate (BRANDplates®, cat. no.: 781965). Density of the seeded cells was optimized based on their size and growth rate, as the follows: Panc-1:750 cells/well; DU 145, PC-3, Capan-1, MIA PaCa-2, SCC-25, FaDu and EBC-1: 1000 cells/well; LNCaP, Detroit 562, MDA-MB-231 and MDA-MB-453 1500 cells/well. […] After the treatment, the luminescence signal was recorded using a microplate reader (BioTek Synergy 2 Multi-Mode Reader, BioTek, Winooski, VT, USA). Dose-response curves were generated by GraphPad Prism 8.4.2. software using a non-linear regression model (variable slope, four parameters), (see FIGS. 12-51).
# [2] = test system: EBC-1 (lung, squamous cell carcinoma) cells; assay: Cell viability assay, CellTiter-Glo (Example 21); type: cell-based, human; conditions: 72 h treatment
# Protocol: as §1
# [3] = test system: FaDu (pharynx, squamous cell carcinoma) cells; assay: Cell viability assay, CellTiter-Glo (Example 21); type: cell-based, human; conditions: 72 h treatment
# Protocol: as §1
# [4] = test system: DU 145 (prostate, carcinoma) cells; assay: Cell viability assay, CellTiter-Glo (Example 21); type: cell-based, human; conditions: 72 h
# Protocol: as §1
# [5] = test system: Detroit 562 (pharynx, carcinoma) cells; assay: Cell viability assay, CellTiter-Glo (Example 21); type: cell-based, human; conditions: 72 h treatment
# Protocol: as §1
# [6] = test system: LNCaP (prostate, carcinoma) cells; assay: Cell viability assay, CellTiter-Glo (Example 21); type: cell-based, human; conditions: 72 h
# Protocol: as §1
# [7] = test system: MDA-MB-231 (breast, adenocarcinoma) cells; assay: Cell viability assay, CellTiter-Glo (Example 21); type: cell-based, human; conditions: 72 h treatment
# Protocol: as §1
# [8] = test system: MDA-MB-453 (breast, carcinoma) cells; assay: Cell viability assay, CellTiter-Glo (Example 21); type: cell-based, human; conditions: 72 h treatment
# Protocol: as §1
# [9] = test system: Panc-1 (pancreas, carcinoma) cells; assay: Cell viability assay, CellTiter-Glo (Example 21); type: cell-based, human; conditions: 72 h treatment
# Protocol: as §1
# [10] = test system: PC-3 (prostate, adenocarcinoma) cells; assay: Cell viability assay, CellTiter-Glo (Example 21); type: cell-based, human; conditions: 72 h treatment
# Protocol: as §1
# [11] = test system: MIA PaCa-2 (pancreas, carcinoma) cells; assay: Cell viability assay, CellTiter-Glo (Example 21); type: cell-based, human; conditions: 72 h treatment
# Protocol: as §1
# [12] = test system: Capan-1 (pancreas, adenocarcinoma) cells; assay: Cell viability assay, CellTiter-Glo (Example 21); type: cell-based, human; conditions: 72 h treatment
# Protocol: as §1
# Panc-1 human cell line = assay: Cytotoxicity on Panc-1, xCELLigence SP, IC50 after 24 h, 48 h, 72 h and 96 h (Example 22)
structure (smiles),measurement,setting,value
[N-]=[N+]=Nc1cccc(CN2CCC3=C(C2)C(=O)N(Cc2ccc(Cl)cc2)C2=NCCN23)c1 [I/133],"SCC-25 (tongue, squamous cell carcinoma) cell viability (% of control)",[1]; 3.7 nM,102.3 ± 4.2 % of control
same,"SCC-25 (tongue, squamous cell carcinoma) cell viability (% of control)",[1]; 11.1 nM,72.9 ± 3.0 % of control
same,"SCC-25 (tongue, squamous cell carcinoma) cell viability (% of control)",[1]; 100 nM,34.7 ± 4.9 % of control
same,"SCC-25 (tongue, squamous cell carcinoma) cell viability (% of control)",[1]; 300 nM,40.9 ± 3.7 % of control
same,"EBC-1 (lung, squamous cell carcinoma) cell viability (% of control)",[2]; 3.7 nM,97.1 ± 6.0 % of control
same,"EBC-1 (lung, squamous cell carcinoma) cell viability (% of control)",[2]; 11.1 nM,60.1 ± 6.7 % of control
same,"EBC-1 (lung, squamous cell carcinoma) cell viability (% of control)",[2]; 100 nM,23.2 ± 0.7 % of control
same,"EBC-1 (lung, squamous cell carcinoma) cell viability (% of control)",[2]; 300 nM,22.2 ± 1.3 % of control
same,"FaDu (pharynx, squamous cell carcinoma) cell viability (% of control)",[3]; 3.7 nM,100.0 ± 6.2 % of control
same,"FaDu (pharynx, squamous cell carcinoma) cell viability (% of control)",[3]; 11.1 nM,70.7 ± 13.1 % of control
same,"FaDu (pharynx, squamous cell carcinoma) cell viability (% of control)",[3]; 100 nM,25.3 ± 6.4 % of control
same,"FaDu (pharynx, squamous cell carcinoma) cell viability (% of control)",[3]; 300 nM,24.6 ± 6.8 % of control
same,DU 145 cell viability,[4]; 3.7 nM,98.8 ± 6.7 % of control
same,DU 145 cell viability,[4]; 11.1 nM,45.7 ± 4.4 % of control
same,DU 145 cell viability,[4]; 100 nM,8.0 ± 2.0 % of control
same,DU 145 cell viability,[4]; 300 nM,8.1 ± 2.6 % of control
same,"Detroit 562 (pharynx, carcinoma) cell viability (% of control)",[5]; 3.7 nM,47.1 ± 16.0 % of control
same,"Detroit 562 (pharynx, carcinoma) cell viability (% of control)",[5]; 11.1 nM,31.1 ± 6.5 % of control
same,"Detroit 562 (pharynx, carcinoma) cell viability (% of control)",[5]; 100 nM,28.8 ± 3.6 % of control
same,"Detroit 562 (pharynx, carcinoma) cell viability (% of control)",[5]; 300 nM,31.3 ± 4.1 % of control
same,LNCaP cell viability,[6]; 3.7 nM,95.9 ± 6.1 % of control
same,LNCaP cell viability,[6]; 11.1 nM,33.4 ± 3.1 % of control
same,LNCaP cell viability,[6]; 100 nM,12.3 ± 1.1 % of control
same,LNCaP cell viability,[6]; 300 nM,13.3 ± 1.2 % of control
same,"MDA-MB-231 (breast, adenocarcinoma) cell viability (% of control)",[7]; 3.7 nM,101.4 ± 2.0 % of control
same,"MDA-MB-231 (breast, adenocarcinoma) cell viability (% of control)",[7]; 11.1 nM,100.4 ± 2.9 % of control
same,"MDA-MB-231 (breast, adenocarcinoma) cell viability (% of control)",[7]; 100 nM,58.2 ± 2.5 % of control
same,"MDA-MB-231 (breast, adenocarcinoma) cell viability (% of control)",[7]; 300 nM,56.4 ± 3.5 % of control
same,"MDA-MB-453 (breast, carcinoma) cell viability (% of control)",[8]; 3.7 nM,108.6 ± 19.7 % of control
same,"MDA-MB-453 (breast, carcinoma) cell viability (% of control)",[8]; 11.1 nM,50.1 ± 10.6 % of control
same,"MDA-MB-453 (breast, carcinoma) cell viability (% of control)",[8]; 100 nM,31.9 ± 1.3 % of control
same,"MDA-MB-453 (breast, carcinoma) cell viability (% of control)",[8]; 300 nM,31.7 ± 0.5 % of control
same,"Panc-1 (pancreas, carcinoma) cell viability (% of control)",[9]; 3.7 nM,108.9 ± 10.2 % of control
same,"Panc-1 (pancreas, carcinoma) cell viability (% of control)",[9]; 11.1 nM,94.1 ± 4.0 % of control
same,"Panc-1 (pancreas, carcinoma) cell viability (% of control)",[9]; 100 nM,56.1 ± 3.7 % of control
same,"Panc-1 (pancreas, carcinoma) cell viability (% of control)",[9]; 300 nM,55.7 ± 2.5 % of control
same,"PC-3 (prostate, adenocarcinoma) cell viability (% of control)",[10]; 3.7 nM,105.6 ± 1.8 % of control
same,"PC-3 (prostate, adenocarcinoma) cell viability (% of control)",[10]; 11.1 nM,83.5 ± 6.4 % of control
same,"PC-3 (prostate, adenocarcinoma) cell viability (% of control)",[10]; 100 nM,32.6 ± 3.3 % of control
same,"PC-3 (prostate, adenocarcinoma) cell viability (% of control)",[10]; 300 nM,32.9 ± 4.6 % of control
same,"MIA PaCa-2 (pancreas, carcinoma) cell viability (% of control)",[11]; 3.7 nM,104.0 ± 17.3 % of control
same,"MIA PaCa-2 (pancreas, carcinoma) cell viability (% of control)",[11]; 11.1 nM,92.1 ± 13.2 % of control
same,"MIA PaCa-2 (pancreas, carcinoma) cell viability (% of control)",[11]; 100 nM,18.4 ± 7.8 % of control
same,"MIA PaCa-2 (pancreas, carcinoma) cell viability (% of control)",[11]; 300 nM,17.4 ± 7.9 % of control
same,"Capan-1 (pancreas, adenocarcinoma) cell viability (% of control)",[12]; 3.7 nM,108.3 ± 8.3 % of control
same,"Capan-1 (pancreas, adenocarcinoma) cell viability (% of control)",[12]; 11.1 nM,98.8 ± 7.9 % of control
same,"Capan-1 (pancreas, adenocarcinoma) cell viability (% of control)",[12]; 100 nM,32.6 ± 4.0 % of control
same,"Capan-1 (pancreas, adenocarcinoma) cell viability (% of control)",[12]; 300 nM,34.0 ± 2.8 % of control
same,IC50,"Panc-1 human cell line; PANC-1, 72 h, read-out: IC50 (72 h) [nM]",9.05 ± 0.669 nM
same,IC50,"Panc-1 human cell line; PANC-1, 96 h, read-out: IC50 (96 h) [nM]",4.73 ± 0.109 nM
